One block for each molecule: values may come before it.
Experiments:
progesterone receptor = target: T1, progesterone receptor (Oryctolagus cuniculus, UniProt P06186); assay: Relative binding affinity to progesterone receptor in uterine cytosol (displacement of tritium-labeled progesterone); parameters: species or system rabbit (estrogen-primed immature female)
T1 construct: in the cytosol obtained from estrogen-primedimmature rabbit uterus; from tissue; host or cells: uterine cytosol of estrogen-primed immature female rabbits
T1 sequence (P06186 1-930): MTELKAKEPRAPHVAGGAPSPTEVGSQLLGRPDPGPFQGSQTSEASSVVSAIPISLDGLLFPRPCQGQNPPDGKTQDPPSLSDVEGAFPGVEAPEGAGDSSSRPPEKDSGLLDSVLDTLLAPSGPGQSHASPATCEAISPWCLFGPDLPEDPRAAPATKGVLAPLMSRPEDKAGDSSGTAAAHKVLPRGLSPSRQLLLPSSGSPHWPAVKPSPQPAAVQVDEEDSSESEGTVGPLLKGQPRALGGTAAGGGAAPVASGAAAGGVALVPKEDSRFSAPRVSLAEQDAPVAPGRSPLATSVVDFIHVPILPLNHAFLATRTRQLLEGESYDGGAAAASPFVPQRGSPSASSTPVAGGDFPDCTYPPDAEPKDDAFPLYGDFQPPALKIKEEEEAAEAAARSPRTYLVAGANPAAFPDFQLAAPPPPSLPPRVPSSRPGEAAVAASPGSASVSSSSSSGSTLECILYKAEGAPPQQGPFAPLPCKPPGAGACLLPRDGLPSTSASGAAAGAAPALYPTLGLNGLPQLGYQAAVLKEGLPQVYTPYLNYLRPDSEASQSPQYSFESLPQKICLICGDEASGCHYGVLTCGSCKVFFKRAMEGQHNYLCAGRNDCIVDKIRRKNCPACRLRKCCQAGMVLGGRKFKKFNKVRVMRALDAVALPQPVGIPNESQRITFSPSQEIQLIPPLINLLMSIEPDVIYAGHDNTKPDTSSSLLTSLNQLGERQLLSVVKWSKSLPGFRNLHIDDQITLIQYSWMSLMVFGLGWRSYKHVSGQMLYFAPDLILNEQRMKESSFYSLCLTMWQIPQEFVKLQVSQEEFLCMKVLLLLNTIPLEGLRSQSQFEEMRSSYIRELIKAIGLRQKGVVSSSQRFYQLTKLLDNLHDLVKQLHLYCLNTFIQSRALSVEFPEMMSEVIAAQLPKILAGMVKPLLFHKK
Protocol: (§1) The in vitro activity of the subject compounds was determined by measuring the binding affinities (RBA) of these compounds relative to progesterone for the progesterone receptor in the cytosol obtained from estrogen-primedimmature rabbit uterus and by measuring the RBA relative to dexamethasone for the glucocorticoid receptor from thymus of adrenalectomized rats. These assays were carried out by the procedures of J. R. Reel et al., Fertility and Sterility, 31, 552 (1979) (progesterone) and G. P. Chrousos et al., Endocrinology, 107, 472 (1980) (glucocorticoid).
^a Relative ability to displace tritiumlabeled progesterone from the
receptor in uterine cytosol from estrogenprimed immature female rabbits a
compared with progesterone (=100).

glucocorticoid receptor = target: T2, glucocorticoid receptor (Rattus norvegicus, UniProt P06536); assay: Relative binding affinity to glucocorticoid receptor of thymus (displacement of tritium-labeled dexamethasone); parameters: species or system rat (adrenalectomized); details: relative to dexamethasone (=100)
T2 construct: glucocorticoid receptor from thymus of adrenalectomized rats; from tissue; host or cells: thymus of adrenalectomized rats
T2 sequence (P06536 1-795): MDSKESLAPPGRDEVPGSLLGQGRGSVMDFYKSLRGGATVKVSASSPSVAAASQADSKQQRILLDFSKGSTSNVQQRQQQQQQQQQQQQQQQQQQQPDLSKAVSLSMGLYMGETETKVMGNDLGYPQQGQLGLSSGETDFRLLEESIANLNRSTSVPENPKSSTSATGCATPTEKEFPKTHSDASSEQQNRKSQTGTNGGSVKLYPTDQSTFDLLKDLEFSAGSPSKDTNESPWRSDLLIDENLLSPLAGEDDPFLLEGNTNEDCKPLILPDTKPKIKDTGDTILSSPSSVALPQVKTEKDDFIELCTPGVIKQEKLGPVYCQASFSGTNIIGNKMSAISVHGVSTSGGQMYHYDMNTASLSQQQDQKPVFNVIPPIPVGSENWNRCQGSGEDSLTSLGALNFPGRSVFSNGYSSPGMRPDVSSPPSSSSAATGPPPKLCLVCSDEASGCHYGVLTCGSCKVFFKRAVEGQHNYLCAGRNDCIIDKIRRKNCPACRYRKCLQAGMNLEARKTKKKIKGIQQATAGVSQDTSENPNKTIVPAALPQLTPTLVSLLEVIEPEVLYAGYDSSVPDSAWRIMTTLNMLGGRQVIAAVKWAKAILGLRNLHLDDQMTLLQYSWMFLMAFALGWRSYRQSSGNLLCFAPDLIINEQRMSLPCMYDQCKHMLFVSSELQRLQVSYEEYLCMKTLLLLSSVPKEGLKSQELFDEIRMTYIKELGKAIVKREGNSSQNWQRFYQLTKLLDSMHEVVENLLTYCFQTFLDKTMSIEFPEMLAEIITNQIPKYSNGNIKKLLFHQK
Protocol: as §1
^b Relative ability to displace tritiumlabeled dexamethasone from the
receptor of the thymus of adrenalectomized rats as compared to […]

[1] = system: endometrial response due to subcutaneous administration of progesterone; assay: Anti-McGinty intrauterine antiprogestational test; type: in vivo, estrogen-primed immature female rabbits; details: intrauterine
Protocol: The antiprogestational activity of the compounds was studied after both intrauterine and oral administration. In each case the compound was tested for its ability to inhibit the endometrial response due to subcutaneous administration of progesterone to estrogen-primed immature female rabbits. The methodology used for the intrauterine test has been described by D. A. McGinty et al. See Endocrinology, 24, 829 (1939). For oral administration of test compounds, the method used was analogous to that of Clauberg. See Clauberg, Zentr. Gynakol., 54, 2757 (1930) as modified by McPhail J. Physiol. (London), 83, 145 (1935). Each active compound was characterized by a dose-related ability to block the progestational effect of simultaneously administered progesterone. When the percent inhibition was plotted versus the log of the dose, linear relationships were obtained. Linear regression analysis permitted calculation of the ED50 and ED90 values (the doses required for 50% and 90% inhibition of the progesterone effect, respectively). The actual dose which gave 90% or more inhibition is also given, although this value is probably less accurate than the calculated values which are based on the dose-response line. […] Since the intrauterine administration bypasses most of the drug-metabolizing systems of the body, especially the liver, intrinsic activity is expected to correlate reasonably well with binding activity to the receptor, according to currently held hypotheses regarding receptor binding.

[2] = system: endometrial proliferation (McPhail Index); assay: Progestational activity, intrauterine (McGinty assay); type: in vivo, estrogen-primed immature female rabbits; details: right horn control 0
Protocol: In this assay estrogen-primed immature female rabbits are treated by injection of the test compound into the left horn of the uterus while the right horn is left untreated as a control. Each horn is then scored for endometrial proliferation by the McPhail Index. […] It indicates a possible need for reassessment of the current hypotheses regarding the effect of this substituent on antagonist versus agonist activity.

Cushing's syndrome = details: cited from earlier work
[3] = system: estrogen-insensitive T47Dco human breast cancer cells; details: Horwitz 1985; cited from earlier work
[4] = comparison of mefipristone, ZK 98.299 (II), ZK 98.734 (III); cited from earlier work
[5] = from % Inhib = a + b · ln dose, results variable, data from "best run"

- P-RBA/G-RBA (progesterone receptor; ratio of RBA values for progesterone receptor to glucocorticoid receptor): 0.65
- Progestin RBA (progesterone receptor; relative to progesterone (=100), rabbit uterine cytosol): 80
- Glucocort. RBA (glucocorticoid receptor): 124
SMILES: CC[C@@H]1C[C@H]2[C@@H]3CCC4=CC(=O)CCC4=C3[C@@H](c3ccc(N(C)C)cc3)C[C@]2(C)[C@H]1C(C)=O [Compound 19, 16α-Ethyl-118-(4-N,N-dimethylaminophenyl)-19-norpregna-4,9-diene-3,20-dione]
- ED90 (actual dose) ([1]; footnote c: no inhibition at tested dose): < 80 µg
- McPhail Index, Left Horn (Treated) ([2]; dose 2.0 μg intrauterine): 3.0 ± 0.32
- McPhail Index, Left Horn (Treated) ([2]; dose 4.0 μg intrauterine): 3.7 ± 0.12
- McPhail Index, Left Horn (Treated) ([2]; dose 8.0 μg intrauterine): 3.6 ± 0.10

SMILES: CC#C[C@]1(O)CC[C@H]2[C@@H]3CCC4=CC(=O)CCC4=C3[C@@H](c3ccc(N(C)C)cc3)C[C@@]21C [RU-486, reference compound]
- ED90 (actual dose) ([1]; actual dose giving ≥ 90% inhibition, results variable, data from "best run"): 1.0 µg
- ED50 [1, 5]: 0.28 µg
- ED90 (calculated) [1, 5]: 0.87 µg
- treatment of Cushing's syndrome (Cushing's syndrome; Nieman et al): successfully used
- antiglucocorticoid activity (Cushing's syndrome; in vivo): very significant antiglucocorticoid activity
- growth-inhibitory properties [3]: exhibits growth-inhibitory properties

SMILES: CN(C)c1ccc(C2CC3(C)C(CCC3(O)CCCO)C3CCC4=CC(=O)CCC4=C23)cc1 (stereo not drawn) [ZK 98.299]
- antiglucocorticoid activity relative to antigestagenic potency (rank) [4]: intermediate position

SMILES: CN(C)c1ccc([C@H]2C[C@@]3(C)[C@@H](CC[C@@]3(O)/C=C\CO)[C@@H]3CCC4=CC(=O)CCC4=C32)cc1 [ZK 98.734]
- antiglucocorticoid activity relative to antigestagenic potency (rank) [4]: least active
